Results on three compounds are retold here after US4256750A, “Pharmaceutical compositions” (Wulfing; Johann A., priority 1979, dated 1981).

The subject of data set [1] is ischaemic skeletal muscle (m. gastrocnemius). As to the kind of experiment: pO2 (oxygen tension) measurement in ischaemic skeletal muscle of anaesthetized cats. Format: in vivo, cat. Conditions: for effect of Compound A, ΔpO2: 125 μg/kg i.v.; for effect of Compound A, ΔpO2 / effect of Compound B, ΔpO2: individual cats; for change of pO2 of ischaemic skeletal muscle (in words): B and C at 5-32 mg/kg compared with Compound A at 125 μg/kg; for effect of Compound B, ΔpO2: 5 mg/kg i.v.
Procedure: pO2 was measured polarographically using Pt-needle electrodes (modified according to Baumgartl and Lubbers, 1973). The reference electrode, an Ag/A/AgCl system was sputtered on the glass mantle of the cathode, or it was a separate electrode. The cathode was coated with a polystyrol and a collodium membrane. A constant voltage supply provided a polarizing voltage between 600 and 800 mV. The reducing current was measured by a nano-ampere amplifying meter. The cathode was inserted in the tissue by means of a motor-driven micromanipulator.
A pO2 -electrode was inserted in the muscle tissue (m. gastrocnemius) of both hindlegs of an anaesthetized cat. After recording the pO2 of the normal perfused muscle, the blood flow to one measuring site was restricted by ligating the femoral artery. The pO2 dropped steeply and the tissue became ischaemic. After a few minutes, the pO2 increased and then decreased again. The values were constant after 30 to 60 min. After having reached a constant level of pO2, the vehicle was given, followed by the test substance.
The mean value and the standard deviation were calculated, in order to check the significance of the effect.

The subject of data set [2] is ischaemic skeletal muscle (calf muscles). The data set can be described thus: Skeletal muscle contractility in anaesthetized cats with restricted femoral blood flow. The class given is in vivo, cat. Conditions: for change of contractility of ischaemic skeletal muscle (in words) / contractility (% initial value): cat; for change of contractility of ischaemic skeletal muscle (in words): B and C at 5-32 mg/kg compared with Compound A at 125 μg/kg; for contractility (% initial value): ischaemic muscle. As to the method:
(§1) Cats of either sex were anaesthetized with urethane/chloralose (120/60 mg/kg i.p.). In the course of the experiments, pentobarbital was injected intravenously (V. antebrachii ceph.) via a plastic tube. The intraduodenal (i.d.) application of compound was conducted by means of a plastic catheter, which was inserted into the duodenum.
(§2) Cats of either sex were anaesthetized as for pO2 measurement. After dissection of the skin of the calf muscles, the sciatic nerve was cut about 3 cm proximal to the knee. The tendon of the calf muscles was cut and connected with an isometric force transducer (SWEMA, SG 3). In order to maintain constant differences and a resting tension of 100 p, the hind limb was fixed at the tibia by means of a clamp. Direct stimulation of the muscles consisted of square wave pulses of 4 msec duration at a frequency of 2 Hz and at a voltage of 50 V. In order to keep the muscles wet and at a normal temperature, the muscles were continuously superfused by means of a NaCl-solution (0.9%, 38° C.). Femoral blood flow was restricted by a graded occlusion of the artery leading to a reduction of contractility by ca. 30%. After having reached a constant level of the contraction force, the vehicle (NaCl and Methocel, respectively) was injected, followed by the test substance.

The nature of data set [3]: Blood pressure (BP) change in the cat contractility experiment (Table 3). Format: in vivo. As to the method: as §1, §2
Data set [4] can be described thus: Solubility in water / aqueous media. The class given is physicochemical.
For data set [5] the following is noted: in vivo; cited from earlier work.
Where [6] appears, read: control (hind limb not ligated).
Where [7] appears, read: contractility and pO2 of ischaemic skeletal muscle, cat.
Setting [8] is: i.d., Compound A 125 μg/kg, Compound B 32 mg/kg, Compound C 12.5 mg/kg.
Setting [9] is: i.v., Compound A 50 μg/kg, Compound B 5 mg/kg.

Values joined by “and” are separate entries in the source; they are usually repeats but may differ in a detail not shown here. Equal entries are not always repeated.

Consider `CCCCn1c(=O)c2c(ncn2CC(C)=O)n(CCCC)c1=O` [Compound A, 1,3-di-n-butyl-7-(2-oxopropyl)xanthine], for which the “effect of Compound A, ΔpO2” value in data set [1] (setting [6]) is 13.2 Torr and 3.8 Torr and 3.5 Torr and 19.3 Torr and 3.4 Torr; in data set [1] (hind limb art. ligation), 6.2 Torr and 7.3 Torr and 5.2 Torr and 27.1 Torr and 11.2 Torr and 5.6 Torr. Besides, in data set [1] (cat), the “change of pO2 of ischaemic skeletal muscle (in words)” value (from here on “change of pO2 … (in words)”) was “distinct increase”. Moreover, the “high activity in the μg-range (dose range)” value in data set [1] (setting [7]) was in the range of 50 to 125 µg/kg. The “Δ muscle contract., t (time interval to reach initial values)” value is more than 60 min in data set [2] (50 μg/kg i.v.); more than 60 min in data set [2] (125 μg/kg i.v.); more than 60 min in data set [2] (313 μg/kg i.v., n = 1). The Δ muscle contract. result in data set [2] (50 μg/kg i.v., mean, n 4) is given as “+36.0 percentage of initial values”; in data set [2] (125 μg/kg i.v., mean), “+19.0 percentage of initial values”; in data set [2] (313 μg/kg i.v., n = 1), “+25.0 percentage of initial values”. The “change of contractility of ischaemic skeletal muscle (in words)” value (“change of contractility … (in words)” for short) in data set [2] was “distinct increase”. Besides, the “contractility (% initial value)” value in data set [2] (setting [8]) amounted to 32 % initial value; in data set [2] (setting [9]), 36 % initial value. The “Δ initial phase BP decrease, t (time interval to reach initial values)” value in data set [3] (50 μg/kg i.v.) is 2 min; in data set [3] (125 μg/kg i.v.) it was 3 min; in data set [3] (313 μg/kg i.v., n = 1), 2 min. The “Δ second phase BP increase, t (time interval to reach initial values)” value in data set [3] (50 μg/kg i.v.) worked out at 33 min; in data set [3] (125 μg/kg i.v.), 32 min; in data set [3] (313 μg/kg i.v., n = 1) it was 6 min. The “Δ initial phase BP decrease” value in data set [3] (50 μg/kg i.v., mean, n 4) was -14.0 percentage of initial values; in data set [3] (125 μg/kg i.v., mean), -23.1 percentage of initial values; in data set [3] (313 μg/kg i.v., n = 1) it was -25.0 percentage of initial values. The “Δ second phase BP increase” value in data set [3] (50 μg/kg i.v., mean, n 4) was “+17.0 percentage of initial values”; in data set [3] (125 μg/kg i.v., mean), “+10.8 percentage of initial values”; in data set [3] (313 μg/kg i.v., n = 1), “+15.0 percentage of initial values”. The “solubility in aqueous media (in words)” value in data set [4] (aqueous media) is recorded as “only sparingly soluble”.
As for `CC(=O)CCCCn1c(=O)c2c(ncn2C)n(C)c1=O` [Compound B, pentoxyphylline, reference compound], the “effect of Compound B, ΔpO2” value in data set [1] (setting [6]) was 0.3 Torr and 1.02 Torr and -2.4 Torr and 14.3 Torr and -0.9 Torr; in data set [1] (hind limb art. ligation) it was -0.16 Torr and -1.5 Torr. The “Mean effect of Compound B compared to Compound A” value in data set [1] (B 5 mg/kg vs A 125 μg/kg, i.v.) was 21.3%. In data set [1] (cat), the “change of pO2 … (in words)” value was “less pronounced”. In addition, the “change of contractility … (in words)” value in data set [2] is “less pronounced”. Further, the “contractility (% initial value)” value in data set [2] (setting [8]) was 23 % initial value; in data set [2] (setting [9]) it was 9 % initial value. In data set [5], the “oral toxicity (in words)” value is listed as “low oral toxicity”.
Consider `CCCCn1c(=O)c2c(ncn2CCC(C)=O)n(CCCC)c1=O` [Compound C, 1,3-di-n-butyl-7-(3-oxobutyl)xanthine, reference compound], for which the “change of pO2 … (in words)” value in data set [1] (cat) is “less pronounced”. Besides, the “dose range of activity” value in data set [1] (setting [7]) lay within 5 to 32 mg/kg. The “change of contractility … (in words)” value in data set [2] is reported as “less pronounced”. In addition, the “contractility (% initial value)” value in data set [2] (setting [8]) is listed as 22 % initial value. For the same compound, in data set [4] (water, reason for not testing i.v.), the “water solubility (in words)” value is reported as “low water solubility”.
